According to patent publication US7507739B2, “6-[(substituted)phenyl]triazolopyrimidines as anticancer agents” (Wyeth, priority 2003, dated 2009):
Marks after values point to notes of the source that are not given here.

What was measured:
[1] = system: HeLa cells; test: Cell cycle analysis with HeLa cells; assay type: cell-based, human; settings: 18 hr
Description: HeLa cells are harvested by trypsinization, washed, counted and distributed to wells of 12-well plates at 125,000 cells per well in 2 mL medium. Cells are cultured overnight. […] Cells are continued in culture for 18 hr after compound addition, then cells in each well are harvested (taking care to recover both adherent and non-adherent cells) and processed using the CycleTEST PLUS kit (Becton Dickinson Immunocytometry Systems, San Jose, Calif.). Flow cytometry is done with a FACSort instrument (Becton Dickinson).
This procedure measures the percentages of cells in a population that are in the G1, S, and G2/M phases of the cell cycle. It utilizes staining of cell nuclei with propidium iodide and analysis by flow cytometry.

[2] = system: U87-MG Human Glioblastoma; test: Human tumor xenograft test, U87-MG; assay type: in vivo, athymic mice; settings: for T/C on day 0 / T/C on day 3 / T/C on day 7 / T/C on day 10 / T/C on day 13 / T/C on day 17: U87-MG, days 1, 5, 9
Description: The ability of compounds of this invention to inhibit tumor growth in animals is studied in the athymic mouse xenograft standard pharmacological test. Female nu/nu mice in an outbred albino background are obtained from Charles River Laboratories (Wilmington, Mass.). Animals are injected subcutaneously on the flank with the desired tumor cell suspension. Several days later, mice with tumors of approximately 150 mm^3 are selected from those injected (staged) and randomly distributed into groups of 5-10. The day of staging is called day 0. Compounds of the invention, usually formulated in saline (exceptions are noted in tables), are administered to animals by intravenous injection or oral gavage on various schedules starting on day 0 or 1, as noted in the tables. The control group in each experiment is dosed with vehicle on the same schedule. Tumor size is measured every 3-7 days with calipers in two orthogonal dimensions, and tumor volume is calculated from the formula volume=[(length×width^2)/2].
Tumor/Control (T/C) is obtained by dividing the mean tumor volume of the treated group by the mean tumor volume of the control group on each measurement day. A treatment dose is defined as active if it produced a statistically significant T/C of 0.50 or less. A p value≦0.05, determined by one-side Student's t-test, is required for statistical significance. A treatment dose is defined as toxic if more than 10% of the animals died from a compound-related toxicity.

CNCCCOc1cc(F)c(-c2c(Cl)nc3ncnn3c2NCC(F)(F)F)c(F)c1.Cl [Example 3a, 5-Chloro-6-{2,6-difluoro-4-[3-(methylamino)propoxy]phenyl}-N-(2,2,2-trifluoroethyl)[1,2,4]triazolo[1,5-a]pyrimidin-7-amine hydrogen chloride Salt]
Percent in Cell Cycle Phase >4N ([1]; 20 nM): 1% | Percent in Cell Cycle Phase Apop ([1]; 20 nM): 29% | Percent in Cell Cycle Phase G1 ([1]; 20 nM): 42% | Percent in Cell Cycle Phase G2/M ([1]; 20 nM): 16% | Percent in Cell Cycle Phase S ([1]; 20 nM): 12% | Percent in Cell Cycle Phase >4N ([1]; 30 nM): 2% | Percent in Cell Cycle Phase Apop ([1]; 30 nM): 55% | Percent in Cell Cycle Phase G1 ([1]; 30 nM): 11% | Percent in Cell Cycle Phase G2/M ([1]; 30 nM): 21% | Percent in Cell Cycle Phase S ([1]; 30 nM): 11% | Percent in Cell Cycle Phase >4N ([1]; 40 nM): 3% | Percent in Cell Cycle Phase Apop ([1]; 40 nM): 50% | Percent in Cell Cycle Phase G1 ([1]; 40 nM): 6% | Percent in Cell Cycle Phase G2/M ([1]; 40 nM): 31% | Percent in Cell Cycle Phase S ([1]; 40 nM): 10% | Percent in Cell Cycle Phase >4N ([1]; 50 nM): 3% | Percent in Cell Cycle Phase Apop ([1]; 50 nM): 32% | Percent in Cell Cycle Phase G1 ([1]; 50 nM): 5% | Percent in Cell Cycle Phase G2/M ([1]; 50 nM): 52% | Percent in Cell Cycle Phase S ([1]; 50 nM): 8% | Percent in Cell Cycle Phase >4N ([1]; 60 nM): 4% | Percent in Cell Cycle Phase Apop ([1]; 60 nM): 25% | Percent in Cell Cycle Phase G1 ([1]; 60 nM): 4% | Percent in Cell Cycle Phase G2/M ([1]; 60 nM): 58% | Percent in Cell Cycle Phase S ([1]; 60 nM): 9% | Percent in Cell Cycle Phase >4N ([1]; 70 nM): 4% | Percent in Cell Cycle Phase Apop ([1]; 70 nM): 21% | Percent in Cell Cycle Phase G1 ([1]; 70 nM): 5% | Percent in Cell Cycle Phase G2/M ([1]; 70 nM): 61% | Percent in Cell Cycle Phase S ([1]; 70 nM): 9% | Percent in Cell Cycle Phase >4N ([1]; 80 nM): 5% | Percent in Cell Cycle Phase Apop ([1]; 80 nM): 24% | Percent in Cell Cycle Phase G1 ([1]; 80 nM): 5% | Percent in Cell Cycle Phase G2/M ([1]; 80 nM): 57% | Percent in Cell Cycle Phase S ([1]; 80 nM): 11% | Percent in Cell Cycle Phase >4N ([1]; 90 nM): 4% | Percent in Cell Cycle Phase Apop ([1]; 90 nM): 23% | Percent in Cell Cycle Phase G1 ([1]; 90 nM): 5% | Percent in Cell Cycle Phase G2/M ([1]; 90 nM): 60% | Percent in Cell Cycle Phase S ([1]; 90 nM): 8% | Percent in Cell Cycle Phase >4N ([1]; 100 nM): 5% | Percent in Cell Cycle Phase Apop ([1]; 100 nM): 25% | Percent in Cell Cycle Phase G1 ([1]; 100 nM): 5% | Percent in Cell Cycle Phase G2/M ([1]; 100 nM): 55% | Percent in Cell Cycle Phase S ([1]; 100 nM): 10% | Percent in Cell Cycle Phase >4N ([1]; 110 nM): 5% | Percent in Cell Cycle Phase Apop ([1]; 110 nM): 26% | Percent in Cell Cycle Phase G1 ([1]; 110 nM): 6% | Percent in Cell Cycle Phase G2/M ([1]; 110 nM): 54% | Percent in Cell Cycle Phase S ([1]; 110 nM): 10% | Percent in Cell Cycle Phase >4N ([1]; 120 nM): 5% | Percent in Cell Cycle Phase Apop ([1]; 120 nM): 30% | Percent in Cell Cycle Phase G1 ([1]; 120 nM): 6% | Percent in Cell Cycle Phase G2/M ([1]; 120 nM): 48% | Percent in Cell Cycle Phase S ([1]; 120 nM): 12% | T/C on day 0 ([2]; 10 mg/kg PO): 0.99 | T/C on day 3 ([2]; 10 mg/kg PO): 1.08 | T/C on day 7 ([2]; 10 mg/kg PO): 0.85 | T/C on day 10 ([2]; 10 mg/kg PO): 0.69** | T/C on day 13 ([2]; 10 mg/kg PO): 0.52** | T/C on day 17 ([2]; 10 mg/kg PO): 0.51** | T/C on day 0 ([2]; 20 mg/kg PO): 1.01 | T/C on day 3 ([2]; 20 mg/kg PO): 0.90 | T/C on day 7 ([2]; 20 mg/kg PO): 0.73 | T/C on day 10 ([2]; 20 mg/kg PO): 0.63** | T/C on day 13 ([2]; 20 mg/kg PO): 0.42** | T/C on day 17 ([2]; 20 mg/kg PO): 0.39** | T/C on day 0 ([2]; 40 mg/kg PO): 1.02 | T/C on day 3 ([2]; 40 mg/kg PO): 0.73 | T/C on day 7 ([2]; 40 mg/kg PO): 0.65** | T/C on day 10 ([2]; 40 mg/kg PO): 0.48** | T/C on day 13 ([2]; 40 mg/kg PO): 0.30** | T/C on day 17 ([2]; 40 mg/kg PO): 0.20** | tumor growth inhibition (activity call) ([2]; U-87 MG, oral dosing, 40, 20, and 10 mg/kg): active

CC[C@]1(O)C[C@H]2CN(CCc3c([nH]c4ccccc34)[C@@](C(=O)OC)(c3cc4c(cc3OC)N(C=O)[C@H]3[C@@](O)(C(=O)OC)[C@H](OC(C)=O)[C@]5(CC)C=CCN6CC[C@]43[C@@H]65)C2)C1 [Vincristine, reference compound]
Percent in Cell Cycle Phase >4N ([1]; 1 nM): 2% | Percent in Cell Cycle Phase Apop ([1]; 1 nM): 6% | Percent in Cell Cycle Phase G1 ([1]; 1 nM): 57% | Percent in Cell Cycle Phase G2/M ([1]; 1 nM): 17% | Percent in Cell Cycle Phase S ([1]; 1 nM): 18% | Percent in Cell Cycle Phase >4N ([1]; 2 nM): 2% | Percent in Cell Cycle Phase Apop ([1]; 2 nM): 8% | Percent in Cell Cycle Phase G1 ([1]; 2 nM): 55% | Percent in Cell Cycle Phase G2/M ([1]; 2 nM): 18% | Percent in Cell Cycle Phase S ([1]; 2 nM): 18% | Percent in Cell Cycle Phase >4N ([1]; 4 nM): 2% | Percent in Cell Cycle Phase Apop ([1]; 4 nM): 9% | Percent in Cell Cycle Phase G1 ([1]; 4 nM): 50% | Percent in Cell Cycle Phase G2/M ([1]; 4 nM): 23% | Percent in Cell Cycle Phase S ([1]; 4 nM): 17% | Percent in Cell Cycle Phase >4N ([1]; 6 nM): 3% | Percent in Cell Cycle Phase Apop ([1]; 6 nM): 11% | Percent in Cell Cycle Phase G1 ([1]; 6 nM): 45% | Percent in Cell Cycle Phase G2/M ([1]; 6 nM): 27% | Percent in Cell Cycle Phase S ([1]; 6 nM): 15% | Percent in Cell Cycle Phase >4N ([1]; 8 nM): 3% | Percent in Cell Cycle Phase Apop ([1]; 8 nM): 12% | Percent in Cell Cycle Phase G1 ([1]; 8 nM): 40% | Percent in Cell Cycle Phase G2/M ([1]; 8 nM): 32% | Percent in Cell Cycle Phase S ([1]; 8 nM): 14% | Percent in Cell Cycle Phase >4N ([1]; 10 nM): 3% | Percent in Cell Cycle Phase Apop ([1]; 10 nM): 16% | Percent in Cell Cycle Phase G1 ([1]; 10 nM): 27% | Percent in Cell Cycle Phase G2/M ([1]; 10 nM): 41% | Percent in Cell Cycle Phase S ([1]; 10 nM): 13% | Percent in Cell Cycle Phase >4N ([1]; 15 nM): 4% | Percent in Cell Cycle Phase Apop ([1]; 15 nM): 19% | Percent in Cell Cycle Phase G1 ([1]; 15 nM): 20% | Percent in Cell Cycle Phase G2/M ([1]; 15 nM): 44% | Percent in Cell Cycle Phase S ([1]; 15 nM): 14% | Percent in Cell Cycle Phase >4N ([1]; 20 nM): 4% | Percent in Cell Cycle Phase Apop ([1]; 20 nM): 18% | Percent in Cell Cycle Phase G1 ([1]; 20 nM): 15% | Percent in Cell Cycle Phase G2/M ([1]; 20 nM): 51% | Percent in Cell Cycle Phase S ([1]; 20 nM): 12% | Percent in Cell Cycle Phase >4N ([1]; 25 nM): 4% | Percent in Cell Cycle Phase Apop ([1]; 25 nM): 17% | Percent in Cell Cycle Phase G1 ([1]; 25 nM): 14% | Percent in Cell Cycle Phase G2/M ([1]; 25 nM): 52% | Percent in Cell Cycle Phase S ([1]; 25 nM): 13% | Percent in Cell Cycle Phase >4N ([1]; 30 nM): 4% | Percent in Cell Cycle Phase Apop ([1]; 30 nM): 19% | Percent in Cell Cycle Phase G1 ([1]; 30 nM): 12% | Percent in Cell Cycle Phase G2/M ([1]; 30 nM): 55% | Percent in Cell Cycle Phase S ([1]; 30 nM): 11% | Percent in Cell Cycle Phase >4N ([1]; 40 nM): 4% | Percent in Cell Cycle Phase Apop ([1]; 40 nM): 18% | Percent in Cell Cycle Phase G1 ([1]; 40 nM): 8% | Percent in Cell Cycle Phase G2/M ([1]; 40 nM): 57% | Percent in Cell Cycle Phase S ([1]; 40 nM): 13%
